Experimental findings from patent US10071962B2, “Androgen receptor modulators and methods for their use” (British Columbia Cancer Agency Branch, priority 2014, dated 2018) are described below.

The target in the test is T1, androgen receptor (AR) (Homo sapiens, UniProt P10275, T878A).
T1 construct: they express endogenous androgen receptor (AR) and secrete prostate-specific antigen (PSA); endogenous in cells; host or cells: LNCaP
T1 sequence (P10275 1-920 T878A): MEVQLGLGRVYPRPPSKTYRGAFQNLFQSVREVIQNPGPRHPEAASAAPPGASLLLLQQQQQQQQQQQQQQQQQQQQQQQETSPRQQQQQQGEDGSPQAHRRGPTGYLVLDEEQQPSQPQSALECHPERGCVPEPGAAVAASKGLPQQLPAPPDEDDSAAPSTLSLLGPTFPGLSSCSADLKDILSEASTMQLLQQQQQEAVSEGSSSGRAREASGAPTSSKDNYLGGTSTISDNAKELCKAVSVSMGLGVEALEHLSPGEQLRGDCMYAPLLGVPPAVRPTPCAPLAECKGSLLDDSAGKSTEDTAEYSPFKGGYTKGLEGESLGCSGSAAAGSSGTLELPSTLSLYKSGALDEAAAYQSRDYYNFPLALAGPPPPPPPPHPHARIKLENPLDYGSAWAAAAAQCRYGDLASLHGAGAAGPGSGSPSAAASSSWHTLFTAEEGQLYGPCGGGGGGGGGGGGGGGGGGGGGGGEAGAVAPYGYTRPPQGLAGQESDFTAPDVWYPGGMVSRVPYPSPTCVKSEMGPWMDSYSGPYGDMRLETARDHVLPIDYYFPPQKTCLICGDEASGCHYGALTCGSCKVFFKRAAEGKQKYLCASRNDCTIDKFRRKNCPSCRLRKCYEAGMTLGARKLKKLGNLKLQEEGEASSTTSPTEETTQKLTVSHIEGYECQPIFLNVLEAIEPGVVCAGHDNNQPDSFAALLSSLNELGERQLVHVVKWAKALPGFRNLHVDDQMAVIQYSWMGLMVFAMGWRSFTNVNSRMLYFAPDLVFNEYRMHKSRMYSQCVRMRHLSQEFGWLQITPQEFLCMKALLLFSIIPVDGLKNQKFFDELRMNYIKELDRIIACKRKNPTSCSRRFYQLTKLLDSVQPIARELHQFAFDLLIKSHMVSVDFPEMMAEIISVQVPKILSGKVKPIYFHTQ
Description: PSA (6.1 kb)-luciferase reporter assay in LNCaP cells, R1881-induced AR transcriptional activity. Format: cell-based. The settings on record: LNCaP cells transfected with PSA (6.1 kb)-luciferase; 1 h pre-treatment, R1881 1 nM, 48 h; various concentrations. As for the experimental part: R1881 (a synthetic androgen) is employed since it is stable and avoids problems associated with the labile physiological ligand dihydrotestosterone (DHT).
LNCaP (2.4×10^4 cell/well) cells were seeded on 24-well plates overnight before transfection with PSA (6.1 kb)-luciferase plasmid (0.25 ug/well) in serum-free, red phenol-free media. The next day, cells were pre-treated with compounds of the invention for 1 hour before the addition of synthetic androgen, R1881 (1 nM) to transactivate androgen receptor (AR). After 48 h of incubation with R1881, the cells were harvested, and relative luciferase activity was determined as a read-out for androgen receptor (AR) transcriptional activity relative to a control. Test compounds were added to the cells at various concentrations and activity for each treatment was normalized to the predicted maximal activity induction (in the absence of test compounds, vehicle only). Transfection experiments were performed using triplicate wells.
(In general: A reporter such as luciferase makes a cellular process visible.)
As to `CCC(=O)N[C@@H](CCC(Cl)(Cl)Cl)C(=O)N1C(=O)C=C(OC)[C@@H]1CCC(Cl)(Cl)Cl` [Compound 1-1a], the “luciferase activity relative to the control (read-out for AR transcriptional activity)” value is recorded as “decrease in luciferase activity relative to the control”.
To `CCC(=O)N[C@@H](CCC(Cl)(Cl)Cl)C(=O)N1C(=O)C=C(OC)[C@H]1CCC(Cl)(Cl)Cl` [Compound 1-1b] belongs “decrease in luciferase activity relative to the control”; to `CCC(=O)N[C@H](CCC(Cl)(Cl)Cl)C(=O)N1C(=O)C=C(OC)[C@@H]1CCC(Cl)(Cl)Cl` [Compound 1-1c], “decrease in luciferase activity relative to the control”.
To `CCC(=O)N[C@H](CCC(Cl)(Cl)Cl)C(=O)N1C(=O)C=C(OC)[C@H]1CCC(Cl)(Cl)Cl` [Compound 1-1d] belongs “decrease in luciferase activity relative to the control”; to `C#CCCC(=O)N[C@H](CCC(Cl)(Cl)Cl)C(=O)N1C(=O)C=C(OC)[C@@H]1CCC(Cl)(Cl)Cl` [Compound 1-2c], “decrease in luciferase activity relative to the control”; to `C#CCCC(=O)N[C@H](CCC(Cl)(Cl)Cl)C(=O)N1C(=O)C=C(OC)[C@H]1CCC(Cl)(Cl)Cl` [Compound 1-2d], “decrease in luciferase activity relative to the control”.
Regarding `COC1=CC(=O)N(C(=O)[C@H](N)CCC(Cl)(Cl)Cl)[C@H]1CCC(Cl)(Cl)Cl` [Compound 1-4c], the “luciferase activity relative to the control (read-out for AR transcriptional activity)” value was “decrease in luciferase activity relative to the control”.
Turning to `COC1=CC(=O)N(C(=O)[C@H](N)CCC(Cl)(Cl)Cl)[C@@H]1CCC(Cl)(Cl)Cl` [Compound 1-4d], the “luciferase activity relative to the control (read-out for AR transcriptional activity)” value is reported as “decrease in luciferase activity relative to the control”.
To `CCS(=O)(=O)N[C@H](CCC(Cl)(Cl)Cl)C(=O)N1C(=O)C=C(OC)[C@H]1CCC(Cl)(Cl)Cl` [Compound 1-6d] belongs “decrease in luciferase activity relative to the control”.
For the compound `CCC(=O)N[C@H](CCC(Cl)(Cl)Cl)C(=O)N1C(=O)C=C(OC)[C@@H]1CC(C)C` [Compound 1-7c], the “luciferase activity relative to the control (read-out for AR transcriptional activity)” value is listed as “decrease in luciferase activity relative to the control”.
To `CCC(=O)N[C@H](CCC(Cl)(Cl)Cl)C(=O)N1C(=O)C=C(OC)[C@H]1CC(C)C` [Compound 1-7d] belongs “decrease in luciferase activity relative to the control”; to `CCC(=O)N[C@H](CC(C)C)C(=O)N1C(=O)C=C(OC)[C@@H]1CCC(Cl)(Cl)Cl` [Compound 1-8c], “decrease in luciferase activity relative to the control”.
To `CCC(=O)N[C@H](CC(C)C)C(=O)N1C(=O)C=C(OC)[C@H]1CCC(Cl)(Cl)Cl` [Compound 1-8d] belongs “slight increase in luciferase activity relative to the control”; to `C#CCCC(=O)N[C@H](CCC(Cl)(Cl)Cl)C(=O)N1C(=O)C=C(OC)[C@@H]1CC(C)C` [Compound 1-9c], “decrease in luciferase activity relative to the control”.
